According to patent publication US20100226888A1, “Ethanol Enhances the Complete Replication of Hepatitis C Virus: the Role of Acetaldehyde” (priority 2009, published 2010):
Like-named read-outs stand apart in the source and are kept apart here.

What was measured:
JFH1 HCV (genotype 2a) = assay type: cell-based, hepatitis C virus
[1] = tested on: Con1 subgenomic HCV replicon (genotype 1b); test: Con1 subgenomic replicon HCV RNA in SgPC2 cells (Northern blot); assay type: cell-based, hepatitis C virus; conditions: 24 h; for HCV RNA level / HCV replication in SgPC2 cells: 5 μM acetaldehyde, 5 μM acetate, 0.2% isopropyl alcohol, 2 mM acetone, 25 mM tert-butanol, 5 mM lactate; for potentiation of HCV RNA replication by ethanol, acetaldehyde, isopropyl alcohol, acetone, and acetate: 30 min pretreatment with 5 μM lovastatin, 5 μM fluvastatin, 5 μg/ml TOFA or 5 μg/ml cerulenin
Source text: (§1) The genotype 2a HCV constructs, pJFH1 (produces infectious virus particles), replicative-null pJFH1-GND, and subgenomic pSgJFH1-Luc (contains a luciferase reporter gene), are described elsewhere (23, 24). Subgenomic HCV replicons are bicistronic constructs that express only the nonstructural proteins of HCV under the control of encephalocarditis virus IRES; neomycin resistance or firefly luciferase gene is under the control of the HCV IRES (15, 22, 24). These replicons support HCV RNA replication but no virus is formed in cell culture. Huh7 cell clones (SgPC2 cells, Clone B) supporting continuous replication of subgenomic HCV replicon of genotype 1b (Con1 sequence) were also used (17, 22).
(§2) The in vitro transcription, and transfection of HCV RNA, and Huh7 human hepatoma cell culture were performed as previously described (17). For experiments involving stable clones, cells were cultured in medium supplemented with 0.4-0.5 mg/mL G418, and G418 was removed from cell culture medium one day prior to cell treatments, which were performed as described in Results. For the in vitro infectivity assays, 2 ml of the extracellular medium from JFH1 RNA-transfected cells was used to inoculate naive Huh7 or Huh7.5 cells with 3 ml of fresh medium, as described (23, 25). Treatments were initiated 24 hours after infection and the cells were harvested after another 24 or 48 hrs.
(§3) Intracellular RNA extraction and northern blots were carried out, as described (16, 17). DNA probes were prepared from nucleotides (“nt.”) 4128-8273 or 358-2816 of JFH1, generated with ScaI and ApaL I, respectively, or nt. 3669 to 6016 of the Con1 subgenomic replicons. Images were quantified by densitometry, using Optiquant Cyclone 4.00 (Perkin Elmer), and data were normalized by glyceraldehyde 3-phosphate dehydrogenase (GAPDH) mRNA content.

NADH/NAD+ ratio = test: NADH/NAD+ enzymatic NADH recycling assay; assay type: cell-based, human; conditions: for NADH/NAD+ ratio: SgPC2 cells, 0.2% ethanol, 5 μM acetaldehyde, 5 μM acetate, 0.2% isopropyl alcohol, 2 mM acetone, 25 mM tert-butanol; for NADH/NAD+ ratio in ethanol-treated cells: with cyanamide, 4 MP, and DADS, data not shown
HCV = conditions: references 53, 54; cited from earlier work
[2] = tested on: intracellular cholesterol; test: Total intracellular cholesterol content in SgPC2 cells; assay type: cell-based, human; conditions: 24 h
Method: FIG. 7. […] SgPC2 cells were treated for 24 h with (A and B) 0.2% ethanol, 5 μM acetaldehyde, 0.2% isopropyl alcohol, 2 mM acetone, 5 μM acetate±30 min pretreatment with (A) 5 μM lovastatin, 5 μM fluvastatin, (B) 5 μg/ml TOFA, 5 μg/ml cerulenin, or with (C) 2 mM β-mercaptopropionic acid (β-MPA). Then, HCV RNA levels were monitored by Northern blot and quantified by densitometry (n=3). D, SgPC2 cells, treated for 24 h with ethanol, acetaldehyde, acetone, and acetate±lovastatin, were monitored for cholesterol levels (n=3). Lovastatin was activated, as described, before use (29). *, indicates statistically significant difference for indicated sample sizes (p<0.05)

JFH1 virus = test: HCV RNA in naive Huh7 or Huh7.5 cells inoculated with JFH1 virus-containing medium; assay type: cell-based, hepatitis C virus
Method: as §2
The total intracellular RNA was obtained from cells using Trizol (Invitrogen). To obtain extracellular HCV RNA, cell culture medium samples were first treated with RNase A (100 μg/ml) for 30 min at room temperature, then RNA was extracted using Trizol LS and glycogen as a carrier. HCV RNA was quantified by qRT-PCR as described (17, 23). For JFH1, the primer sequences were 5′ […] 3′ (nt 146 to 164; forward, SEQ ID NO.: 1), and 5′ […] 3′ (nt 277 to 295; reverse, SEQ ID NO.: 2), and the sequence of the fluorogenic probe, labeled with 6-FAM and TAMRA (Biosearch Technologies, Inc.), was 5′ […] 3′ (nt 168 to 188, SEQ ID NO.: 3). The primer and probe sequences for qRT-PCR analysis of Con1 RNA's were described previously (17). Standard curves were generated using in vitro-transcribed HCV RNA's. Intracellular HCV RNA levels were normalized by 18 S rRNA or GAPDH mRNA.

[3] = tested on: SgJFH1-Luc subgenomic HCV replicon (genotype 2a); assay type: cell-based, hepatitis C virus
Source text: as §1
After various treatments, SgJFH1 Luc RNA-transfected cells were lysed with 1× Reporter Lysis Buffer, and the luciferase activity was determined using Luciferase Reporter Assay Kit (Promega Corp.) (24). Luciferase activities were normalized by total protein content, determined with bicinchoninic acid (BCA) assay kit from Pierce.
To test whether the JFH1 RNA replication was also affected by ethanol, Huh7 cells were transfected with JFH1 SgJFH1-Luc RNA and exposed the cells to ethanol for 48 hours. Then, HCV replication was monitored by measuring the firefly luciferase activity (24).

[4] = tested on: Con1 HCV subgenomic replicon; test: Con1 subgenomic replicon HCV RNA in Clone B cells; assay type: cell-based, hepatitis C virus; conditions: 24 hrs, response compared with SgPC2 cells
Source text: as §1, §3

[5] = tested on: Huh7 human hepatoma cells
Method: NADH and NAD+ levels were determined by enzymatic NADH recycling assay, using the NAD+/NADH Quantification Kit from Biovision, per manufacturers recommendations with an optional filtration step that used Microcon YM-10 (Millipore). Total ATP content was measured using Somatic Cell ATP Assay Kit from Sigma-Aldrich. The data were normalized by total protein content, determined with BCA assay kit from Pierce.
To examine whether ethanol increased the complete replication of HCV, positive-sense genomic JFH1 RNA was produced by in vitro transcription, using T7 RNA polymerase, and transfected into Huh7 human hepatoma cells. Then, the transfected cells were exposed to 0-1.0% (v/v; 0-172 mM) ethanol once daily with a change of medium each day for 48 hrs. Then, the cells and the cell culture medium were harvested and analyzed for intracellular and RNase A-resistant extracellular HCV RNA's by a combination of Northern blots and qRT-PCR.

[6] = BSO with 2 mM GSH or GSH ester, 24 hrs
[7] = 0.2% ethanol ± 0.1 mM 4 MP plus 25 μM DADS
[8] = acetaldehyde at physiologically relevant concentrations, 24 hrs

## N[C@@H](CCC(=O)N[C@@H](CS)C(=O)NCC(=O)O)C(=O)O [GSH, glutathione]
JFH1 HCV (genotype 2a); [6]
  restoration of intracellular HCV RNA in BSO-treated cells: could not restore

## CC(C)(C)O [tert-butanol]
[1]
  HCV RNA level / HCV replication in SgPC2 cells: did not elevate
NADH/NAD+ ratio; 3 h
  NADH/NAD+ ratio: did not elevate

## CC(C)O [isopropyl alcohol]
[1]
  HCV RNA level / HCV replication in SgPC2 cells: increased
NADH/NAD+ ratio; 3 h
  NADH/NAD+ ratio: increases

## CCCCCCCCCCCCCCOc1ccc(C(=O)O)o1 [TOFA, 5-(Tetradecyloxy)-2-furoic acid]
[1]; SgPC2 cells
  potentiation of HCV RNA replication by ethanol, acetaldehyde, isopropyl alcohol, acetone, and acetate: almost completely inhibited
HCV
  basal level of HCV replication: suppress

## CC[C@H](C)C(=O)O[C@H]1C[C@@H](C)C=C2C=C[C@H](C)[C@H](CC[C@@H]3C[C@@H](O)CC(=O)O3)[C@H]21 [lovastatin, Lovastatin]
[1]; SgPC2 cells
  potentiation of HCV RNA replication by ethanol, acetaldehyde, isopropyl alcohol, acetone, and acetate: almost completely inhibited
[2]; ± lovastatin
  increase of intracellular cholesterol content by ethanol, acetaldehyde, acetone, and acetate: attenuated
HCV
  basal level of HCV replication: suppress

## Cc1cn[nH]c1 [4 MP, 4-methylpyrazole]
[1]; [7]
  potentiation of HCV replication by ethanol: suppressed
NADH/NAD+ ratio
  NADH/NAD+ ratio in ethanol-treated cells: decreases

## N#CN [cyanamide]
[1]; 0.2% ethanol ± 0.1 mM cyanamide
  potentiation of HCV replication by ethanol: suppressed
NADH/NAD+ ratio
  NADH/NAD+ ratio in ethanol-treated cells: decreases

## C=CCSSCC=C [DADS]
[1]; [7]
  potentiation of HCV replication by ethanol: suppressed
NADH/NAD+ ratio
  NADH/NAD+ ratio in ethanol-treated cells: decreases

## CCOC(=O)CNC(=O)[C@H](CS)NC(=O)CC[C@H](N)C(=O)O [GSH ethyl ester]
JFH1 HCV (genotype 2a); [6]
  restoration of extracellular HCV RNA in BSO-treated cells: partially restored
  restoration of intracellular HCV RNA in BSO-treated cells: partially restored

## CC=O [acetaldehyde]
JFH1 HCV (genotype 2a); [8]
  HCV RNA content in virus-producing JFH1 cells: significantly increased
JFH1 virus; FIG. 5, also data not shown
  HCV replication in RIG-1-defective Huh7.5 cells: increase
JFH1 virus; Huh7.5 cells, acetaldehyde 24 hrs
  HCV replication in naive cells infected with virus-containing medium: significant increases
[3]; [8]
  HCV RNA content in non-virus producing JFH1 cells: significantly increased
[1]
  HCV RNA level / HCV replication in SgPC2 cells: elevated
[4]
  HCV RNA in Clone B cells: responded similarly
NADH/NAD+ ratio; 3 h
  NADH/NAD+ ratio: increases
[2]
  total intracellular cholesterol content: increased

## C/C=C/C/C=C/CCC(=O)[C@H]1O[C@H]1C(N)=O [cerulenin]
[1]; SgPC2 cells
  potentiation of HCV RNA replication by ethanol, acetaldehyde, isopropyl alcohol, acetone, and acetate: almost completely inhibited
HCV
  basal level of HCV replication: suppress

## CC(=O)O [acetate]
[1]
  HCV RNA level / HCV replication in SgPC2 cells: increased
NADH/NAD+ ratio; 3 h
  NADH/NAD+ ratio: increases
[2]
  total intracellular cholesterol content: increased

## CC(O)C(=O)O (centres unmarked) [lactate]
[1]
  HCV RNA level / HCV replication in SgPC2 cells: little to no effect
NADH/NAD+ ratio; 5 mM lactate, 3 h
  NADH levels: 235.9±11.9 % of the control level
[2]
  total intracellular cholesterol content: no significant effect

## OO [H2O2, Hydrogen peroxide]
JFH1 HCV (genotype 2a); 25, 50, and 100 μM bolus H2O2, 24 hrs
  JFH1 RNA levels: decreased
[5]; 100 μM H2O2
  cytotoxicity in JFH1 cells: some cytotoxicity
[5]; 25 and 50 μM H2O2
  cytotoxicity in JFH1 cells: clearly within the subtoxic range

## CC(C)=O [acetone]
[1]
  HCV RNA level / HCV replication in SgPC2 cells: increased
NADH/NAD+ ratio; 3 h
  NADH/NAD+ ratio: increases
[2]
  total intracellular cholesterol content: increased

## O=C(O)CCS [β-mercaptopropionic acid]
[1]; 2 mM β-mercaptopropionic acid, SgPC2 cells
  increase in HCV replication: 15.2±1.7 fold

## glucose oxidase [GO]
JFH1 HCV (genotype 2a); 0.25 mU/mL GO + glucose, 24 hrs
  decrease of intracellular JFH1 RNA: 30±8%
JFH1 HCV (genotype 2a); GO + glucose after 16 hr pre-treatment with 20 μM BSO, 24 hrs
  effect on the suppression of HCV RNA by BSO: exacerbated the suppression
[3]
  effect on the suppression of subgenomic JFH1 RNA replication by BSO: exacerbated the suppression
